The record followed here is patent US9445590B2, “Fungicidal composition comprising a pyridylethylbenzamide derivative and a compound capable of inhibiting the transport of electrons of the respiratory chain in phytopathogenic fungal organisms” (BAYER INTELLECTUAL PROPERTY GMBH, priority 2004, dated 2016).

The subject of assay [1] is Alternaria brassicae. Briefly: Efficacy against Alternaria brassicae (in vitro), growth on PDA medium. In kind it is cell-based. The note with it: radial growth after 14 days. As to the method:
The growth of Alternaria brassicae was followed on PDA medium containing the compounds alone or in mixtures. The PDA medium is prepared by mixing 39 grams of PDA (Merck) in 1 litter of demineralised water. The medium is sterilized by autoclave 15 minutes at 121° C. The compounds are dissolved in acetone and added to the medium before pouring it in Petri dishes. After medium drying, the fungus is inoculated on the medium and allowed to growth at 19° C. The percentage of efficacy is noted after 14 days of growth (measurement of the radial growth) of the fungus in comparison with a control. […]

The next assay has as its system Sphaerotheca fuliginea. Briefly: Efficacy against Sphaerotheca fuliginea on gherkin plants (preventive spray). The conditions noted are these: Podosphaera fuliginea, 504 h, grading 21 days after contamination. The format is in vivo. The protocol: (§1) The active ingredients tested are prepared by potter homogenisation in a mixture of acetone/tween/water. This suspension is then diluted with water to obtain the desired active material concentration.
Gherkin plants (Vert petit de Paris variety) in starter cups, sown on a 50/50 peat soil-pozzolana substrate and grown at 20° C./23° C., are treated at the 2-leaves stage by spraying with the aqueous suspension described above. Plants, used as controls, are treated with an aqueous solution not containing the active material.
After 24 hours, the plants are contaminated by spraying them with an aqueous suspension of Sphaerotheca fuliginea spores (100 000 spores per ml). The spores are collected from a contaminated plants. The contaminated gherkin plants are incubated at about 20° C./25° C. and at 60/70% relative humidity.
Grading (% of efficacy) is carried out 21 days after the contamination, in comparison with the control plants.

The test system of a further assay is Botrytis cinerea. Description: Efficacy against Botrytis cinerea on gherkin plants (preventive spray). The conditions noted are these: grading 5 to 7 days after contamination. The format is in vivo. The protocol:
as §1
Gherkin plants (Petit vert de Paris variety) in starter cups, sown on a 50/50 peat soil-pozzolana substrate and grown at 18-20° C., are treated at the cotyledon Z11 stage by spraying with the aqueous suspension described above. Plants, used as controls, are treated with an aqueous solution not containing the active material.
After 24 hours, the plants are contaminated by depositing drops of an aqueous suspension of Botrytis cinerea spores (150,000 spores per ml) on upper surface of the leaves. The spores are collected from a 15-day-old culture and are suspended in a nutrient solution composed of: • 20 g/L of gelatine • 50 g/L of cane sugar • 2 g/L of NH4NO3 • 1 g/L of KH2PO4
The contaminated gherkin plants are settled for 5/7 days in a climatic room at 15-11° C. (day/night) and at 80% relative humidity. Grading is carried out 5 to 7 days after contamination, in comparison with the control plants.
Gherkin plants (Petit vert de Paris variety) in starter cups, sown on a 50/50 peat soil-pozzolana substrate and grown at 18-20° C., are treated at the cotyledon Z 11 stage by spraying with the aqueous suspension described above. Plants, used as controls, are treated with an aqueous solution not containing the active material.
(§2) The formulated compounds are diluted with water to obtain the desired active material concentration.

The test system of assay [2] is Erysiphe graminis f. sp. tritici. Description: Efficacy against Erysiphe graminis f. sp. tritici on wheat plants (preventive spray). The format is in vivo. The conditions noted are these: grading 7 to 14 days after contamination. The protocol: as §1
Wheat plants (Audace variety) in starter cups, sown on 50/50 peat soil-pozzolana substrate and grown at 12° C., are treated at the 1-leaf stage (10 cm tall) by spraying with the aqueous suspension described above.
(§3) Plants, used as controls, are treated with an aqueous solution not containing the active material.
After 24 hours, the plants are contaminated by dusting them with Erysiphe graminis f. sp. tritici spores, the dusting being carried out using diseased plants.
Grading is carried out 7 to 14 days after the contamination, in comparison with the control plants.
as §2
Wheat plants (Audace variety) in starter cups, sown on 50/50 peat soil-pozzolana substrate and grown at 12° C., are treated at the 1-leaf stage (10 cm tall) by spraying with the aqueous suspension described above. Plants, used as controls, are treated with an aqueous solution not containing the active material.

Assay [3] concerns Alternaria brassicae. Briefly: Efficacy against Alternaria brassicae on radish plants (preventive spray). The format is in vivo. The note with it: Example 13, dose 111 ppm, grading 6 to 7 days after contamination. As to the method:
as §2
Radish plants (Pernot variety) in starter cups, sown on a 50/50 peat soil-pozzolana substrate and grown at 18-20° C., are treated at the cotyledon stage by spraying with the aqueous suspension described above.
as §3
After 24 hours, the plants are contaminated by spraying them with an aqueous suspension of Alternaria brassicae spores (40,000 spores per cm^3). The spores are collected from a 12-13-day-old culture.
The contaminated radish plants are incubated for 6-7 days at about 18° C., under a humid atmosphere.
Grading is carried out 6 to 7 days after the contamination, in comparison with the control plants.

The next assay concerns Pyrenophora teres. Briefly: Efficacy against Pyrenophora teres on barley plants (preventive spray). The format is in vivo. The note with it: 288 h, grading 12 days after contamination. As to the method: as §1
Barley plants (Express variety) in starter cups, sown on a 50/50 peat soil-pozzolana substrate and grown at 12° C., are treated at the 1-leaf stage (10 cm tall) by spraying with the aqueous suspension described above. Plants, used as controls, are treated with an aqueous solution not containing the active material.
After 24 hours, the plants are contaminated by spraying them with an aqueous suspension of Pyrenophora teres spores (12 000 spores per ml). The spores are collected from a 12-day-old culture. The contaminated barley plants are incubated for 24 hours at about 20° C. and at 100% relative humidity, and then for 12 days at 80% relative humidity.
Grading (% of efficacy) is carried out 12 days after the contamination, in comparison with the control plants.

Take `CO/C=C(/C(=O)OC)c1ccccc1Oc1cc(Oc2ccccc2C#N)ncn1` [Azoxystrobin, azoxystrobin]: the “% Efficacy” value in the assay on Alternaria brassicae [1] (Example 3, dose 0.025 ppm) came out at 38%; in the assay on Alternaria brassicae [1] (Example 3, dose 0.05 ppm) it was 41%; in the assay with Alternaria brassicae [1] (Example 3, dose 0.1 ppm), 47%; in the assay with Alternaria brassicae [1] (Example 3, dose 0.25 ppm), 56%; in the assay on Alternaria brassicae [1] (Example 3, dose 0.5 ppm), 47%; with Alternaria brassicae [1] (Example 3, dose 1 ppm), 48%. In the assay with Alternaria brassicae [1] (Example 3, dose 2.5 ppm), the “% Efficacy” value is 49%.
The compound `O=C(Nc1ccccc1-c1ccc(Cl)cc1)c1cccnc1Cl` [Boscalid, boscalid, reference compound] came in with an Emax at 4 ppm in the assay on Sphaerotheca fuliginea (Example 11, dose 4 ppm) of 0%. The compound further had an Emax at 8 ppm in the assay on Sphaerotheca fuliginea (Example 11, dose 8 ppm) of 10%. Moreover, the Emax at 15 ppm in the assay with Sphaerotheca fuliginea (Example 11, dose 15 ppm) turned out to be 45%.
As for `CNC(=O)C(=NOC)c1ccccc1Oc1ncnc(Oc2cccc(Cl)c2C)c1F` [Compound A, 2-{2-[6-(3-Chloro-2-methylphenoxy)-5-fluoro-pyrimidin-4-yloxy]-phenyl}2-methoxyimino-N-methylacetamide], in the assay on Botrytis cinerea (Botrytis cinerea, Example 8, dose 37 ppm), the Emax at 37 ppm turned out to be 0%. In the assay with Botrytis cinerea (Botrytis cinerea, Example 8, dose 111 ppm), the Emax at 111 ppm is 0%. This compound came in with an Emax at 333 ppm in the assay with Botrytis cinerea (Botrytis cinerea, Example 8, dose 333 ppm) of 0%.
In turn, `Cc1nn(C)c(F)c1C(=O)Nc1ccccc1C(C)CC(C)C` (centres unmarked) [Compound B, N-[2-(1,3-dimethyl-butyl)-phenyl]-5-fluoro-1,3-dimethyl-1H-pyrazole-4-carboxamide] showed an Emax at 4 ppm in the assay on Botrytis cinerea (Botrytis cinerea, Example 10, dose 4 ppm) of 32%.
In turn, `Cn1cc(C(=O)Nc2ccc(F)cc2-c2ccc(Cl)c(Cl)c2)c(C(F)F)n1` [Compound C, N-(3′,4′-dichloro-5-fluorobiphenyl-2-yl)-3-(difluoro-methyl)-1-methyl-1H-pyrazole-4-carboxamide] showed an Emax at 31.2 ppm in the assay on Sphaerotheca fuliginea (Example 12, dose 31.2 ppm) of 0%. In the assay with Sphaerotheca fuliginea (Example 12, dose 62.5 ppm), the Emax at 62.5 ppm turned out to be 0%.
For `CC(C)CC(C)c1sccc1NC(=O)c1cn(C)nc1C(F)(F)F` (centres unmarked) [Compound D, N-[2-(1,3-dimethylbutyl)-thiophen-3-yl]1-methyl-3-(trifluoromethyl)-1H-pyrazole-4-carboxamide], in the assay on Botrytis cinerea (Botrytis cinerea, Example 14, dose 250 ppm, formulated compounds), the Emax at 250 ppm amounted to 60%.
Turning to `CNC(=O)/C(=N/OC)c1ccccc1COc1cc(C)ccc1C` [Dimoxystrobin, dimoxystrobin, reference compound], the “% Efficacy” value in assay [2] (Example 9, dose 62.5 g/ha, formulated compounds) is listed as 0%.
In turn, `CSC1=N[C@@](C)(c2ccccc2)C(=O)N1Nc1ccccc1` [Fenamidone, fenamidone, reference compound] displayed an Emax at 111 ppm with Alternaria brassicae [3] of 55%.
`CO/N=C(/C1=NOCCO1)c1ccccc1Oc1ncnc(Oc2ccccc2Cl)c1F` [Fluoxastrobin, fluoxastrobin, reference compound]: the Emax at 15 ppm in assay [2] (Blumeria graminis, Example 4, dose 15 ppm) is 20%.
`CO/N=C(/C(=O)OC)c1ccccc1COc1ccccc1C` [Kresoxim-methyl, kresoxim-methyl, reference compound] returned an Emax at 37 ppm in the assay on Botrytis cinerea (Botrytis cinerea, Example 5, dose 37 ppm) of 0%. The Emax at 111 ppm in the assay with Botrytis cinerea (Botrytis cinerea, Example 5, dose 111 ppm) was determined as 0%. The same compound returned an Emax at 333 ppm with Botrytis cinerea (Botrytis cinerea, Example 5, dose 333 ppm) of 0%.
Consider `CO/C=C(/C(=O)OC)c1ccccc1COc1cccc(C(F)(F)F)n1` [Picoxystrobin, picoxystrobin, reference compound], for which the “% Efficacy” value in the assay on Botrytis cinerea (Example 6, dose 37 ppm) stood at 0%; in the assay on Botrytis cinerea (Example 6, dose 111 ppm), 35%; with Botrytis cinerea (Example 6, dose 333 ppm), 40%.
On to `COC(=O)N(OC)c1ccccc1COc1ccn(-c2ccc(Cl)cc2)n1` [Pyraclostrobin, pyraclostrobin, reference compound], for which the Emax at 37 ppm in the assay on Botrytis cinerea (Botrytis cinerea, Example 7, dose 37 ppm) turned out to be 0%. Moreover, in the assay on Botrytis cinerea (Botrytis cinerea, Example 7, dose 111 ppm), the Emax at 111 ppm was 0%. Also, in the assay on Botrytis cinerea (Botrytis cinerea, Example 7, dose 333 ppm), the Emax at 333 ppm stood at 0%.
As for `CON=C(C(=O)OC)c1ccccc1CON=C(C)c1cccc(C(F)(F)F)c1` [Trifloxystrobin, trifloxystrobin], the Emax at 4 g/ha in the assay on Pyrenophora teres (Example 1, dose 4 g/ha) was 50%. Further, the Emax at 8 g/ha with Pyrenophora teres (Example 1, dose 8 g/ha) is 70%. Further, the Emax at 0.025 ppm in the assay with Alternaria brassicae [1] (Alternaria brassicae, 336 h, Example 2, dose 0.025 ppm) amounted to 45%. Also, the Emax at 0.05 ppm in the assay with Alternaria brassicae [1] (Alternaria brassicae, 336 h, Example 2, dose 0.05 ppm) is 44%. The compound further had an Emax at 0.1 ppm in the assay with Alternaria brassicae [1] (Alternaria brassicae, 336 h, Example 2, dose 0.1 ppm) of 45%. The Emax at 0.25 ppm in the assay with Alternaria brassicae [1] (Alternaria brassicae, 336 h, Example 2, dose 0.25 ppm) is 53%. Also, in the assay with Alternaria brassicae [1] (Alternaria brassicae, 336 h, Example 2, dose 0.5 ppm), the Emax at 0.5 ppm was found to be 60%. Further, the Emax at 1 ppm in the assay with Alternaria brassicae [1] (Alternaria brassicae, 336 h, Example 2, dose 1 ppm) was 65%. In the assay with Alternaria brassicae [1] (Alternaria brassicae, 336 h, Example 2, dose 2.5 ppm), this compound came in with an Emax at 2.5 ppm of 71%.
